From patent publication US10899910B2, “Quaternary cationic polymers” (ECOLAB USA, INC., priority 2016, dated 2021)

How the values were obtained:
[1] = Surface tension measurement (Tracker tensiometer); type: physicochemical; settings: room temperature
Procedure: Surface tension measurements were conducted on a Tracker tensiometer (Teclis Instruments) at room temperature. Various concentrations of surfactant solutions were prepared and measurements were conducted.
The surface tension as a function of concentration of the cationic surfactant samples were measured and are listed in Table 2, where NT means not tested.

[2] = Corrosion bubble cell test (Linear Polarization Resistance); settings: 2 ppm with 1% 2ME synergist, 80° C.
Procedure: (§1) Cationic polymer salts were evaluated for corrosion performance as compared to a C12-C18 alkyl dimethyl benzyl ammonium chloride via a bubble test procedure. The bubble test simulates low flow areas where little or no mixing of water and oil occurs. The test was conducted using brine (80% of the brine being 3% sodium chloride brine and 20% of the brine being a hydrocarbon containing 75% LVT-200 kerosene oil and 25% xylene). The brine was placed into kettles and purged with carbon dioxide. The brine was continually purged with carbon dioxide to saturate the brine prior to starting the test. After the test began, the test cell was blanketed with carbon dioxide one hour prior to electrode insertion and through the duration of the test to maintain saturation. The kettles were stirred at 150 revolutions per minute (rpm) for the duration of the test to maintain thermal equilibrium at 80° C. The corrosion rate was measured by Linear Polarization Resistance (LPR) techniques. The working electrode used was carbon steel. The counter and reference electrodes were both 1018 carbon steel. The electrodes were all cleaned and polished prior to testing. Data were collected for three hours before 20 ppm of each of the compositions (containing 2 ppm of each of various pentaquaternary cationic polymer salts or the comparative C12-C18 alkyl dimethyl benzyl ammonium chloride and 1% 2-mercaptoethanol (2ME) as synergist in an organic solvent) was dosed into its respective cell. Data were collected overnight. A low concentration of the compositions was used to differentiate between the compositions.
Corrosion bubble cell tests were performed according to the method of Example A1 to evaluate a hexaquaternary cationic polymer salt for corrosion performance as compared to a C12-C18 alkyl dimethyl benzyl ammonium chloride. Data were collected for three hours before 20 ppm of each of the compositions (containing 2 ppm of a hexaquaternary cationic polymer salt or the comparative C12-C18 alkyl dimethyl benzyl ammonium chloride and 1% 2ME as synergist in an organic solvent) was dosed into its respective cell. Data were collected overnight. A low concentration of the compositions was used to differentiate between the compositions.
as §1, with “six” for “three”, “polyethyleneimine-based” for “pentaquaternary”, “cell. However, for the comparative composition, data was only collected three hours before addition of the compositions.” for “cell.”

[3] = CO2-saturated brine/hydrocarbon, three hours baseline (Tables 8, 9)

| Molecule | Surface tension ([1]; concentration 0.010 %) | Surface tension ([1]; concentration 0.025 %) | Surface tension ([1]; concentration 0.050 %) | Surface tension ([1]; concentration 0.100 %) | Surface tension ([1]; concentration 0.200 %) | Surface tension ([1]; concentration 0.500 %) | Surface tension ([1]; concentration 1.000 %) | % Protection [2, 3] | Surface tension ([1]; concentration 1.500 %) | Surface tension ([1]; concentration 2.000 %) | % Protection ([2]; six hours baseline (comparative: three hours) (Table 10)) |
| --- | --- | --- | --- | --- | --- | --- | --- | --- | --- | --- | --- |
| CCCCCCCCCCCCCCCCCC[N+](C)(C)CC(O)CN(CCN(CCN(CC(O)C[N+](C)(C)CCCCCCCCCCCCCCCCCC)CC(O)C[N+](C)(C)CCCCCCCCCCCCCCCCCC)CC(O)C[N+](C)(C)C)CC(O)C[N+](C)(C)C.[Cl-].[Cl-].[Cl-].[Cl-].[Cl-] (centres unmarked) [Compound 10] | 70.99 mN/m | 61.99 mN/m | 57.33 mN/m | 52.64 mN/m | 50.58 mN/m | 47.92 mN/m | 47.48 mN/m | – | – | – | – |
| CCCCCCCCCCCCCCCCCC[N+](C)(C)CC(O)CN(CCN(CCN(CC(O)C[N+](C)(C)CCCCCCCCCCCCCCCCCC)CC(O)C[N+](C)(C)CCCCCCCCCCCCCCCCCC)CC(O)C[N+](C)(C)C)CC(O)C[N+](C)(C)CCCCCCCCCCCCCCCCCC.[Cl-].[Cl-].[Cl-].[Cl-].[Cl-] (centres unmarked) [Compound 11] | 63.52 mN/m | 60.01 mN/m | 56.35 mN/m | 53.23 mN/m | 50.16 mN/m | 47.38 mN/m | 46.58 mN/m | 76% | – | – | – |
| CCCCCCCCCCCCCCCCCC[N+](C)(C)CC(O)CN(CCN(CC(O)C[N+](C)(C)CCCCCCCCCCCCCCCCCC)CC(O)C[N+](C)(C)CCCCCCCCCCCCCCCCCC)CCN(CC(O)C[N+](C)(C)CCCCCCCCCCCCCCCCCC)CC(O)C[N+](C)(C)CCCCCCCCCCCCCCCCCC.[Cl-].[Cl-].[Cl-].[Cl-].[Cl-] (centres unmarked) [Compound 12] | 63.16 mN/m | 55.77 mN/m | 51.89 mN/m | 49.42 mN/m | 47.02 mN/m | 45.02 mN/m | 44.22 mN/m | 55% | 43.46 mN/m | 42.97 mN/m | – |
| CCCCCCCCCCCCCCCCCC[N+](C)(C)CC(O)CN(CCN(CCN(CC(O)C[N+](C)(C)CCCCCCCCCCCCCCCCCC)CC(O)C[N+](C)(C)CCCCCCCCCCCCCCCCCC)CC(O)C[N+](C)(C)CCCCCCCCCCCCCCCCCC)CCN(CC(O)C[N+](C)(C)CCCCCCCCCCCCCCCCCC)CC(O)C[N+](C)(C)CCCCCCCCCCCCCCCCCC.[Cl-].[Cl-].[Cl-].[Cl-].[Cl-].[Cl-] (centres unmarked) [Compound 13] | 63.28 mN/m | 59.04 mN/m | 55.36 mN/m | 52.65 mN/m | 50.31 mN/m | 48.02 mN/m | 47.78 mN/m | 52% | – | – | – |
| C12-C18 alkyl dimethyl benzyl ammonium chloride [reference compound] | – | – | – | – | – | – | – | 38% | – | – | 38% |
